Source: paper PMC11876601 (Molecular Systems Biology, 2025)
Read-outs that look alike come from different tables or passages of the source.

Key:
13 PDAC cell lines = test: Phenotypic drug combination viability screen (ATPlite, 72 h), cell line panel; type: cell-based, human; details: for median AUC across all cell lines: single agent, 72 h; for synergy with GEM (Bliss model, ΣAUC∆ > 10%): any of the cell lines, GEM low and GEM high
Protocol: (§1) Cell viability was assessed by measuring ATP levels to indicate metabolic activity.
(§2) Afterward, small amounts were transferred to 384-well intermediate plates (Greiner Bio-One GmbH, Germany). […] For drug combination screening, 1000 to 5000 cells were seeded into 384-well plates (CulturPlate™, Perkin Elmer, MA, USA) using a Multidrop™ Combi Reagent Dispenser (Thermo Scientific, MA, USA) in 50 µl medium per well 24 h prior to drug treatment (seeding densities see Appendix Table S1). […] The final DMSO concentration in each well was 0.2%. […] Eight wells per plate without library drug served as negative controls, and sixteen wells per plate containing 5 µM Staurosporine served as positive controls. Control plates not containing any drug were used to correct for incubation effects, and data quality was assessed by calculation of Z-prime of positive and negative controls according to1 Z-prime=1−3SDpos+3SDneg/[…] where SD is the standard deviation. […] Dose–response curves from the experimental and hypothetical data were compared, and shifts in AUC were used to describe combination effects (AUC∆ = AUChypothetical − AUCexperimental). […] Only combinations with R^2 > 0.8 in both conditions were considered in the synergy analysis.

Colo-357 cells = test: Drug combination viability screen (ATPlite, 72 h); type: cell-based, human; details: Bliss model
Protocol: as §1, §2

Capan-1 cells = test: Drug combination viability screen (ATPlite, 72 h); type: cell-based, human; details: Bliss model
Protocol: as §1, §2

Dan-G cells = test: Drug combination viability screen (ATPlite, 72 h); type: cell-based, human; details: Bliss model
Protocol: as §1, §2

[1] = test system: HPDE (immortalized pancreatic duct cell line); test: Drug combination viability screen (ATPlite, 72 h); type: cell-based, human; details: for sensitization of HPDE cells to GEM: combination with GEM; for AUC: single agent, HPDE;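 for AUC: area under vehicle-normalized viability curve scaled 0 to 100 percent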
Protocol: as §1, §2

AsPC-1 [2] = test: cells; set-up: Viability of PDAC cell lines, ATPlite luminescence, 11-dose single-agent curve fit; details: Homo sapiens, ASPC1, 72 h, read-out: EC50 [nM]
How it was run: (§3)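 cells (1000 to 5000 per well) seeded 24 h before drug addition in a screen at 0.2% final DMSO. Controls were drug-free wells (negative) and 5 µM staurosporine (positive).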

BxPC-3 [3] = test: cells; set-up: Viability of PDAC cell lines, ATPlite luminescence, 11-dose single-agent curve fit; details: Homo sapiens, BXPC-3, 72 h, read-out: EC50 [nM]
How it was run: as §3

Capan-1 [4] = test: cells; set-up: Viability of PDAC cell lines, ATPlite luminescence, 11-dose single-agent curve fit; details: Homo sapiens, CAPAN-1, 72 h, read-out: EC50 [nM]
How it was run: as §3

Colo-357 [5] = test: cells; set-up: Viability of PDAC cell lines, ATPlite luminescence, 11-dose single-agent curve fit; details: Homo sapiens, COLO357, 72 h, read-out: EC50 [nM]
How it was run: as §3

Dan-G [6] = test: cells; set-up: Viability of PDAC cell lines, ATPlite luminescence, 11-dose single-agent curve fit; details: 72 h, read-out: EC50 [nM]
How it was run: as §3

FAMPAC [7] = test: cells; set-up: Viability of PDAC cell lines, ATPlite luminescence, 11-dose single-agent curve fit; details: 72 h, read-out: EC50 [nM]
How it was run: as §3

HPDE [8] = test: cells; set-up: Viability of PDAC cell lines, ATPlite luminescence, 11-dose single-agent curve fit; details: HPDE, 72 h, read-out: EC50 [nM]
How it was run: as §3

HuP-T4 [9] = test: cells; set-up: Viability of PDAC cell lines, ATPlite luminescence, 11-dose single-agent curve fit; details: Homo sapiens, HuP-T4, 72 h, read-out: EC50 [nM]
How it was run: as §3

MiaPaCa-2 [10] = test: cells; set-up: Viability of PDAC cell lines, ATPlite luminescence, 11-dose single-agent curve fit; details: Homo sapiens, MIA PaCa-2, 72 h, read-out: EC50 [nM]
How it was run: as §3

PANC-1 [11] = test: cells; set-up: Viability of PDAC cell lines, ATPlite luminescence, 11-dose single-agent curve fit; details: Homo sapiens, PANC-1, 72 h, read-out: EC50 [nM]
How it was run: as §3

PSN-1 [12] = test: cells; set-up: Viability of PDAC cell lines, ATPlite luminescence, 11-dose single-agent curve fit; details: Homo sapiens, PSN1, 72 h, read-out: EC50 [nM]
How it was run: as §3

PaTu-8988-T [13] = test: cells; set-up: Viability of PDAC cell lines, ATPlite luminescence, 11-dose single-agent curve fit; details: Homo sapiens, PaTu 8988t, 72 h, read-out: EC50 [nM]
How it was run: as §3

Suit2-07 [14] = test: cells; set-up: Viability of PDAC cell lines, ATPlite luminescence, 11-dose single-agent curve fit; details: 72 h, read-out: EC50 [nM]
How it was run: as §3

AsPC-1 [15] = test: cells; set-up: ATPlite luminescence viability of PDAC cell lines, 11-dose single-agent curves, 4-parameter fit; details: Homo sapiens, ASPC1, 72 h, read-out: EC50 [nM]
How it was run: (§4)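 cells (1000 to 5000 per well) seeded 24 h before drug addition in a combination screen at 0.2% final DMSO. Controls were drug-free wells (negative) and 5 µM staurosporine (positive).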

BxPC-3 [16] = test: cells; set-up: ATPlite luminescence viability of PDAC cell lines, 11-dose single-agent curves, 4-parameter fit; details: Homo sapiens, BXPC-3, 72 h, read-out: EC50 [nM]
How it was run: as §4

Capan-1 [17] = test: cells; set-up: ATPlite luminescence viability of PDAC cell lines, 11-dose single-agent curves, 4-parameter fit; details: Homo sapiens, CAPAN-1, 72 h, read-out: EC50 [nM]
How it was run: as §4

Colo-357 [18] = test: cells; set-up: ATPlite luminescence viability of PDAC cell lines, 11-dose single-agent curves, 4-parameter fit; details: Homo sapiens, COLO357, 72 h, read-out: EC50 [nM]
How it was run: as §4

Dan-G [19] = test: cells; set-up: ATPlite luminescence viability of PDAC cell lines, 11-dose single-agent curves, 4-parameter fit; details: 72 h, read-out: EC50 [nM]
How it was run: as §4

FAMPAC [20] = test: cells; set-up: ATPlite luminescence viability of PDAC cell lines, 11-dose single-agent curves, 4-parameter fit; details: 72 h, read-out: EC50 [nM]
How it was run: as §4

HPDE [21] = test: cells; set-up: ATPlite luminescence viability of PDAC cell lines, 11-dose single-agent curves, 4-parameter fit; details: HPDE, 72 h, read-out: EC50 [nM]
How it was run: as §4

HuP-T4 [22] = test: cells; set-up: ATPlite luminescence viability of PDAC cell lines, 11-dose single-agent curves, 4-parameter fit; details: Homo sapiens, HuP-T4, 72 h, read-out: EC50 [nM]
How it was run: as §4

MiaPaCa-2 [23] = test: cells; set-up: ATPlite luminescence viability of PDAC cell lines, 11-dose single-agent curves, 4-parameter fit; details: Homo sapiens, MIA PaCa-2, 72 h, read-out: EC50 [nM]
How it was run: as §4

PANC-1 [24] = test: cells; set-up: ATPlite luminescence viability of PDAC cell lines, 11-dose single-agent curves, 4-parameter fit; details: Homo sapiens, PANC-1, 72 h, read-out: EC50 [nM]
How it was run: as §4

PSN-1 [25] = test: cells; set-up: ATPlite luminescence viability of PDAC cell lines, 11-dose single-agent curves, 4-parameter fit; details: Homo sapiens, PSN1, 72 h, read-out: EC50 [nM]
How it was run: as §4

PaTu-8988-T [26] = test: cells; set-up: ATPlite luminescence viability of PDAC cell lines, 11-dose single-agent curves, 4-parameter fit; details: Homo sapiens, PaTu 8988t, 72 h, read-out: EC50 [nM]
How it was run: as §4

Suit2-07 [27] = test: cells; set-up: ATPlite luminescence viability of PDAC cell lines, 11-dose single-agent curves, 4-parameter fit; details: 72 h, read-out: EC50 [nM]
How it was run: as §4

SMILES	median AUC across all cell lines (13 PDAC cell lines) [%]	synergy with GEM (Colo-357 cells)	synergy with GEM (Capan-1 cells)	synergy with GEM (Dan-G cells)	sensitization of HPDE cells to GEM [1]	EC50 (AsPC-1 [2]) [nM]	EC50 (BxPC-3 [3]) [nM]	EC50 (Capan-1 [4]) [nM]	EC50 (Colo-357 [5]) [nM]	EC50 (Dan-G [6]) [nM]	EC50 (FAMPAC [7]) [nM]	EC50 (HPDE [8]) [nM]	EC50 (HuP-T4 [9]) [nM]	EC50 (MiaPaCa-2 [10]) [nM]	EC50 (PANC-1 [11]) [nM]	EC50 (PSN-1 [12]) [nM]	EC50 (PaTu-8988-T [13]) [nM]	EC50 (Suit2-07 [14]) [nM]	AUC [1] [%]	EC50 (AsPC-1 [15]) [nM]	also measured
CO[C@H]1C[C@@H]2CC[C@@H](C)[C@@](O)(O2)C(=O)C(=O)N2CCCC[C@H]2C(=O)O[C@H]([C@H](C)C[C@@H]2CC[C@@H](O)[C@H](OC)C2)CC(=O)[C@H](C)/C=C(\C)[C@@H](O)[C@@H](OC)C(=O)[C@H](C)C[C@H](C)/C=C/C=C/C=C/1C [Rapamycin]	> 80	synergized	synergized	synergized	strongly sensitized	50.8	0.08	0.11	276	0.09	1.59	0.08	1.13	1.11	4.67	0.05	0.05	7.19	–	–	–
CC(C)n1nc(-c2ccc3oc(N)nc3c2)c2c(N)ncnc21 [Sapanisertib]	54	–	–	–	–	–	–	–	–	–	–	–	–	–	–	–	–	–	< 60	1.5	EC50 (BxPC-3 [16]): 11.2 nM; EC50 (Capan-1 [17]): 135 nM; EC50 (Colo-357 [18]): 10.8 nM; EC50 (Dan-G [19]): 8.08 nM; EC50 (FAMPAC [20]): 2.05 nM; EC50 (HPDE [21]): 11.7 nM; EC50 (HuP-T4 [22]): 1510 nM; EC50 (MiaPaCa-2 [23]): 10.1 nM; EC50 (PANC-1 [24]): 70.5 nM; EC50 (PSN-1 [25]): 23.2 nM; EC50 (PaTu-8988-T [26]): 3.95 nM; EC50 (Suit2-07 [27]): 14.2 nM
CO[C@H]1C[C@@H]2CC[C@@H](C)[C@@](O)(O2)C(=O)C(=O)N2CCCC[C@H]2C(=O)O[C@H]([C@H](C)C[C@@H]2CC[C@@H](OP(C)(C)=O)[C@H](OC)C2)CC(=O)[C@H](C)/C=C(\C)[C@@H](O)[C@@H](OC)C(=O)[C@H](C)C[C@H](C)/C=C/C=C/C=C/1C [Ridaforolimus]	> 80	synergized	synergized	synergized	strongly sensitized	0.22	0.13	31.4	127	87.2	0.13	0.56	15.9	3.25	4.17	0.26	0.04	118	–	–	–
CC[C@@H]1C(=O)N(C)c2cnc(Nc3ccc(C(=O)N[C@H]4CC[C@H](N5CCN(CC6CC6)CC5)CC4)cc3OC)nc2N1C(C)C [Volasertib]	54	–	–	–	–	–	–	–	–	–	–	–	–	–	–	–	–	–	–	21.1	synergy with GEM (Bliss model, ΣAUC∆ > 10%) (13 PDAC cell lines): No synergy; EC50 (BxPC-3 [16]): 25.2 nM; EC50 (Capan-1 [17]): 32.3 nM; EC50 (Colo-357 [18]): 19.8 nM; EC50 (Dan-G [19]): 29.1 nM; EC50 (FAMPAC [20]): 19.9 nM; EC50 (HPDE [21]): > 10000 nM; EC50 (HuP-T4 [22]): > 10000 nM; EC50 (MiaPaCa-2 [23]): 12.8 nM; EC50 (PANC-1 [24]): 37.7 nM; EC50 (PSN-1 [25]): 16.4 nM; EC50 (PaTu-8988-T [26]): 33.8 nM; EC50 (Suit2-07 [27]): 19 nM
CO[C@H]1C[C@@H]2CC[C@@H](C)[C@@](O)(O2)C(=O)C(=O)N2CCCC[C@H]2C(=O)O[C@H]([C@H](C)C[C@@H]2CC[C@@H](OCCO)[C@H](OC)C2)CC(=O)[C@H](C)/C=C(\C)[C@@H](O)[C@@H](OC)C(=O)[C@H](C)C[C@H](C)/C=C/C=C/C=C/1C [Everolimus]	> 80	synergized	synergized	synergized	strongly sensitized	–	–	–	–	–	–	–	–	–	–	–	–	–	–	–	–
CCc1cnn2c(NCc3ccc[n+]([O-])c3)cc(N3CCCC[C@H]3CCO)nc12 [Dinaciclib]	40	–	–	–	–	–	–	–	–	–	–	–	–	–	–	–	–	–	38	–	synergy with GEM (Bliss model, ΣAUC∆ > 10%) (13 PDAC cell lines): No synergy
